# Laboratory results published in US7598258B2, “Quinoline derivatives and quinazoline derivatives inhibiting autophosphorylation of macrophage colony stimulating factor receptor” (Kirin Beer Kabushiki Kaisha, priority 2002, dated 2009).
# Target: T1, Human KDR (Homo sapiens, UniProt P35968)
# T1 construct: expressed in transfected cells; host or cells: NIH3T3 cells (mouse fibroblasts)
# Assay: Inhibition of KDR phosphorylation in human KDR-transfected NIH3T3 cells (ELISA);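 on Selection ratio (KDR phosphorylation IC50 / c-fms phosphorylation IC50): class 2 means ratio of 10 or more and class 3 means 50 or more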
# Type: cell-based
# Conditions: for Selection ratio (KDR phosphorylation IC50 / c-fms phosphorylation IC50): class 0-3; for IC50: human KDR-transfected NIH3T3 cells, VEGF 100 ng/ml, ELISA, read-out: KDR phosphorylation 50% inhibitory concentration (IC50)
# Summary of the method: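 NIH3T3 cells transfected with human KDR, in 0.1% FCS medium, treated with compound 1 hr at 37° C, then stimulated with VEGF 100 ng/ml for 2 min. Lysate KDR phosphorylation measured by anti-phosphotyrosine capture/anti-KDR ELISA (A450); IC50 from inhibition normalized between VEGF-stimulated and unstimulated wells.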
# T1 sequence (P35968 20-1356): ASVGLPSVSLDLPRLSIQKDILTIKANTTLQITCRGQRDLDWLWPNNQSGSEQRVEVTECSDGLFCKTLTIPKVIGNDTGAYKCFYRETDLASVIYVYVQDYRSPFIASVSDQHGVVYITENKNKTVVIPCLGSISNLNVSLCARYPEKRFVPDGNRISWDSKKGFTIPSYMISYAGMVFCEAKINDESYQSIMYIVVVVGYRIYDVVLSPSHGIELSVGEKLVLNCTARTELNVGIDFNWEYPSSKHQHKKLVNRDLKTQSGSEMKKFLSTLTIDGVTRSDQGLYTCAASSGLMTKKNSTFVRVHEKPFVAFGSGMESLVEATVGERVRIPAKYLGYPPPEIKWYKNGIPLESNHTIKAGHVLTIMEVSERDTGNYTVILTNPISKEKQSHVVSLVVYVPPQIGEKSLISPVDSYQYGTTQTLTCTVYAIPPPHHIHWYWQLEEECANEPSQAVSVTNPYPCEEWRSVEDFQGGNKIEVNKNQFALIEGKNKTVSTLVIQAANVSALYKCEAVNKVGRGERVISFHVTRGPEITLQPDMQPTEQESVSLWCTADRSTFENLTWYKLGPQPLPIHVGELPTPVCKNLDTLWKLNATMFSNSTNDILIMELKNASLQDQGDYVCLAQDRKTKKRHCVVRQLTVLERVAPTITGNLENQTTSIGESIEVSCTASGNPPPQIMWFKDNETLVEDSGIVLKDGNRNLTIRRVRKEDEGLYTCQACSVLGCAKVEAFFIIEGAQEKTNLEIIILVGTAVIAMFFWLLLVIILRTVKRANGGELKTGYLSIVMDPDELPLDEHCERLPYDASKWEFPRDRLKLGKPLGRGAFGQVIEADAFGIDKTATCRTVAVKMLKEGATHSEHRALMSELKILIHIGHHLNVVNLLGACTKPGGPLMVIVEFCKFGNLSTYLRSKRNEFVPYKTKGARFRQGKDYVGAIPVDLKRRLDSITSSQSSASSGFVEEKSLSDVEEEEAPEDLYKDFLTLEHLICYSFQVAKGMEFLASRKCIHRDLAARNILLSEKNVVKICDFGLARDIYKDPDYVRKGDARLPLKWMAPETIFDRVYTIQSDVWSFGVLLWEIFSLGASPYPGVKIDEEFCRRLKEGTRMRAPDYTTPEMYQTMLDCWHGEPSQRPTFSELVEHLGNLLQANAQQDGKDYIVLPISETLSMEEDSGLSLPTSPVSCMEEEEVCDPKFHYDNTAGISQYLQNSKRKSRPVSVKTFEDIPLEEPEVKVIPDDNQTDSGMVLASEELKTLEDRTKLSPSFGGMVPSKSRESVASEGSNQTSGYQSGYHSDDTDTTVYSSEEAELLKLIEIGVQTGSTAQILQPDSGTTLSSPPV
structure (smiles),measurement,value
"COc1cc2c(Oc3ccc(NC(=O)NC(C)c4ccc(F)c(F)c4)c(F)c3)ccnc2cc1OCCCN1CCOCC1 (stereo not shown) [Example 68, N-[1-(3,4-Difluorophenyl)ethyl]-N′-(2-fluoro-4-{[6-methoxy-7-(3-morpholinopropoxy)-4-quinolyl]oxy}phenyl)urea]",Selection ratio (KDR phosphorylation IC50 / c-fms phosphorylation IC50),0 (KDR phosphorylation 50% inhibitory concentration [μM]/c-fms phosphorylation 50% inhibitory concentration [μM] was less than 5)
same,IC50,5.6 nM
"COc1cc2c(Oc3ccc(NC(=O)NC(C)c4ccc(F)cc4F)c(F)c3)ccnc2cc1OCCCN1CCOCC1 (stereo not shown) [Example 69, N-[1-(2,4-Difluorophenyl)ethyl]-N′-(2-fluoro-4-{[6-methoxy-7-(3-morpholinopropoxy)-4-quinolyl]oxy}phenyl)urea]",Selection ratio (KDR phosphorylation IC50 / c-fms phosphorylation IC50),0 (KDR phosphorylation 50% inhibitory concentration [μM]/c-fms phosphorylation 50% inhibitory concentration [μM] was less than 5)
same,IC50,5.2 nM
"COc1cc2nccc(Oc3ccc(NC(=O)NC(C)c4nccs4)c(F)c3)c2cc1OC (stereo not shown) [Example 70, N-{4-[(6,7-Dimethoxy-4-quinolyl)oxy]-2-fluorophenyl}-N′-[1-(1,3-thiazol-2-yl)ethyl]urea]",Selection ratio (KDR phosphorylation IC50 / c-fms phosphorylation IC50),2 (when the value was 10 or more)
same,IC50,55.1 nM
"COc1cc2nccc(Oc3ccc(NC(=O)N[C@@H](C)c4nccs4)c(F)c3)c2cc1OC [Example 71, N-{4-[(6,7-Dimethoxy-4-quinolyl)oxy]-2-fluorophenyl}-N′-[(1S)-1-(1,3-thiazol-2-yl)ethyl]urea]",Selection ratio (KDR phosphorylation IC50 / c-fms phosphorylation IC50),2 (when the value was 10 or more)
same,IC50,39.9 nM
"COc1cc2nccc(Oc3ccc(NC(=O)N[C@H](C)c4nccs4)c(F)c3)c2cc1OC [Example 72, N-{4-[(6,7-Dimethoxy-4-quinolyl)oxy]-2-fluorophenyl}-N′-[(1R)-1-(1,3-thiazol-2-yl)ethyl]urea]",Selection ratio (KDR phosphorylation IC50 / c-fms phosphorylation IC50),1 (when the value was 5 or more)
same,IC50,35.6 nM
"COc1cc2nccc(Oc3ccc(NC(=O)NC(C)c4nccs4)cc3F)c2cc1OC (stereo not shown) [Example 73, N-{4-[(6,7-Dimethoxy-4-quinolyl)oxy]-3-fluorophenyl}-N′-[1-(1,3-thiazol-2-yl)ethyl]urea]",Selection ratio (KDR phosphorylation IC50 / c-fms phosphorylation IC50),2 (when the value was 10 or more)
same,IC50,43.3 nM
"COc1cc2nccc(Oc3ccc(NC(=O)NC(C)c4nccs4)cc3)c2cc1OC (stereo not shown) [Example 77, N-{4-[(6,7-Dimethoxy-4-quinolyl)oxy]phenyl}-N′-[1-(1,3-thiazol-2-yl)ethyl]urea]",Selection ratio (KDR phosphorylation IC50 / c-fms phosphorylation IC50),2 (when the value was 10 or more)
same,IC50,101 nM
"COc1cc2nccc(Oc3ccc(NC(=O)N[C@@H](C)c4nccs4)cc3)c2cc1OC [Example 78, N-{4-[(6,7-Dimethoxy-4-quinolyl)oxy]phenyl}-N′-[(S)-1-(1,3-thiazol-2-yl)ethyl]urea]",Selection ratio (KDR phosphorylation IC50 / c-fms phosphorylation IC50),2 (when the value was 10 or more)
same,IC50,53.9 nM
"COc1cc2nccc(Oc3ccc(NC(=O)N[C@H](C)c4nccs4)cc3)c2cc1OC [Example 79, N-{4-[(6,7-Dimethoxy-4-quinolyl)oxy]phenyl}-N′-[(1R)-1-(1,3-thiazol-2-yl)ethyl]urea]",Selection ratio (KDR phosphorylation IC50 / c-fms phosphorylation IC50),2 (when the value was 10 or more)
same,IC50,95.2 nM
"COc1cc2nccc(Oc3ccc(NC(=O)NC(C)c4nccs4)cc3OC)c2cc1OC (stereo not shown) [Example 80, N-{4-[(6,7-Dimethoxy-4-quinolyl)oxy]-3-methoxyphenyl}-N′-[1-(1,3-thiazol-2-yl)ethyl]urea]",Selection ratio (KDR phosphorylation IC50 / c-fms phosphorylation IC50),3 (when the value was 50 or more)
same,IC50,526 nM
"COc1cc2nccc(Oc3ccc(NC(=O)N[C@@H](C)c4nccs4)cc3OC)c2cc1OC [Example 81, N-{4-[(6,7-Dimethoxy-4-quinolyl)oxy]-3-methoxyphenyl}-N′-[(1S)-1-(1,3-thiazol-2-yl)ethyl]urea]",Selection ratio (KDR phosphorylation IC50 / c-fms phosphorylation IC50),3 (when the value was 50 or more)
same,IC50,1050 nM
